For the compound `COc1ccccc1-c1cc(N)on1`, the melting point (as a rule, the temperature of the solid-liquid transition) lay within 93 to 95 °C.

`COc1cc(CCl)ccc1SC`: the melting point fell in the range of 78 to 80 °C.

For `CC(=O)c1ccc(S(=O)(=O)N2CCOCC2)cc1`, the melting point fell in the range of 161 to 163 °C.

As for `O=C(O)c1nccnc1C(=O)Nc1ccc(Cl)cc1`, the melting point was 178 to 180 °C.

In turn, `Cn1ncc2cn[nH]c2c1=O` returned a melting point of 246 to 248 °C.

`Clc1nc(Br)n[nH]1` came in with a melting point of 178 to 180 °C.

As for `NS(=O)(=O)c1cccs1`, the melting point lay in the range of 142 to 144 °C.

`O=C(CCl)Nc1ccc(OC(F)(F)F)cc1` registered a melting point of 71 to 74 °C.

As to `Nc1ccc(NC(=O)CN2CCCCCC2)cc1`, the melting point lay in the range of 82 to 84 °C.

The compound `O=C(O)CCCOc1cccc(Cl)c1Cl` came in with a melting point of 121 to 123 °C.

Regarding `CS(=O)(=O)Nc1ccc(C(=O)CCl)cc1`, the melting point was in the range of 155 to 158 °C.

`N#CCN1CCCC2CCCCC21` (stereo not drawn) gave a melting point of 42 to 44 °C.

`NNc1c([N+](=O)[O-])cc(C(F)(F)F)cc1[N+](=O)[O-]` displayed a melting point of 129 to 131 °C.

`CCc1ccc(C(=O)c2cccc(S(C)(=O)=O)c2)cc1` yielded a melting point of 97 to 99 °C.

`COC(=O)c1nc[nH]n1` gave a melting point of 180 to 182 °C.

`N#Cc1cccc(NC(=O)NC2CC2)c1` yielded a melting point of 139 to 141 °C.

`O=Cc1cn(-c2ccccc2)nc1-c1ccncc1`: the melting point is 153 to 155 °C.

The compound `Cc1oc2cc(O)ccc2c(=O)c1Oc1ccccc1` returned a melting point of 235 to 237 °C.

Turning to `CC(=O)c1ccc(N)nc1`, the melting point is 107 to 109 °C.

On to `Cc1ccc(C)c(OCC(=O)NN)c1`, for which the melting point was 153 to 155 °C.

Compound `NC(=S)Cc1nccn1Cc1ccccc1` had a melting point of 131 to 133 °C.

Consider `CC(C)(C)OC(=O)NCc1ccc(C(=O)O)cc1`, for which the melting point was in the range of 164 to 166 °C.

The compound `Nc1nc2ccccc2n1-c1ccccc1` had a melting point of 148 to 150 °C.

The compound `Cc1ccc(N2CCCC2)c(C#N)c1` gave a melting point of 42 to 44 °C.

Turning to `CN(C)CCn1c(S)nc2ccsc2c1=O`, the melting point was in the range of 192 to 194 °C.

For `Cc1cc2ccccc2c(=O)[nH]1`, the melting point lay in the range of 199 to 201 °C.

`Cc1cccc(CSCC(=O)O)c1` returned a melting point of 74 to 76 °C.

Compound `O=CC1=C(Sc2nc3ccccc3o2)CCCC1` returned a melting point of 93 to 95 °C.

With `CN1CCN(S(=O)(=O)c2ccc(NN)nc2)CC1`, the melting point fell in the range of 168 to 170 °C.

In the case of `CCn1c2ccccc2c2cc(N=C=S)ccc21`, the melting point fell in the range of 118 to 120 °C.

`NS(=O)(=O)Cc1cccnc1`: the melting point fell in the range of 154 to 156 °C.

As to `CS(=O)(=O)c1ccc(Br)cc1N`, the melting point was 109 to 111 °C.

With `N#Cc1ccccc1-c1ccc(CN)cc1`, the melting point lay in the range of 53 to 55 °C.

As for `NC(=O)c1cnn(-c2ccccc2)c1N`, the melting point lay in the range of 167 to 170 °C.

For `CC(C)(C)OC(=O)NC1CC1`, the melting point was 62 to 64 °C.

The compound `Cc1noc(C(F)F)c1C(=O)O` returned a melting point of 134 to 136 °C.

As for `O=C(Nc1ccccc1F)C1CCc2ccccc2N1` (stereo not drawn), the melting point fell in the range of 96 to 98 °C.

`Cc1cc(C(=O)CCl)ccc1F` gave a melting point of 33 to 35 °C.

Turning to `COc1ccc(Br)cc1C1NC(=O)NC1=O` (stereo not drawn), the melting point is 209 to 211 °C.

In turn, `CC(O)c1nc2ccccc2n1C(F)F` (stereo not drawn) displayed a melting point of 96 to 98 °C.

With `O=C1NC(=O)C2CN(Cc3ccccc3)CC12` (stereo not drawn), the melting point was 91 to 93 °C.

`Cc1[nH]c2ccc(C#N)cc2c1C` returned a melting point of 145 to 147 °C.

Consider `Cc1ccccc1C1CC1C(=O)O` (stereo not drawn), for which the melting point lay within 64 to 66 °C.

`CNC(=O)c1cncc(C=CC(=O)O)c1` came in with a melting point of 253 to 255 °C.

Compound `O=C(O)c1cccc(S(=O)(=O)N2CCCCCC2)c1` yielded a melting point of 173 to 175 °C.

Turning to `COc1ccc(C2CC2C(=O)O)cc1` (stereo not drawn), the melting point lay in the range of 109 to 111 °C.

Turning to `O=C1OCc2c1cccc2S(=O)(=O)Cl`, the melting point was 124 to 126 °C.

As to `Cc1[nH]c2ccccc2c1C(=O)CBr`, the melting point was in the range of 203 to 205 °C.

For the compound `O=C(O)c1ccc(SCCCO)cc1`, the melting point fell in the range of 168 to 170 °C.

In turn, `Cc1c(NCC(C)(C)C)cccc1C(=O)O` returned a melting point of 135 to 137 °C.

`Cc1n[nH]c(-c2ccccc2I)n1` showed a melting point of 154 to 156 °C.

`CNC(=O)c1ccc(C(=O)O)cn1`: the melting point fell in the range of 263 to 265 °C.

With `CC(C)=C(C)C(=O)O`, the melting point lay within 68 to 70 °C.

As for `O=c1[nH]ccn(C2CC2)c1=O`, the melting point was 161 to 163 °C.

As for `Sc1nnnn1C1CCOCC1`, the melting point lay within 154 to 156 °C.

On to `Nc1nncc(-c2cccc(F)c2)n1`, for which the melting point lay within 224 to 226 °C.

The compound `O=C(O)c1n[nH]c2ccc(Cl)cc12` came in with a melting point of 271 to 273 °C.

In the case of `CC(C)(C)OC(=O)Nc1cccc(Cl)n1`, the melting point was in the range of 74 to 76 °C.

Consider `CCc1c(C(=O)O)nnn1-c1cccc(N)c1`, for which the melting point was 179 to 181 °C.

`COc1cccc(NC(=O)CC#N)c1` returned a melting point of 154 to 156 °C.

In turn, `O=C(O)C(=O)c1ccc(F)c(F)c1` yielded a melting point of 88 to 90 °C.

Turning to `O=C(CCl)NCC(=O)c1ccccc1Br`, the melting point is 103 to 105 °C.

`NS(=O)(=O)c1cc(C(=O)O)ccc1Br` returned a melting point of 275 to 277 °C.

`N#Cc1cc(C(=O)O)c[nH]1` displayed a melting point of 229 to 231 °C.

In turn, `CC(=O)c1cccc(OCCOc2cccc(C(C)=O)c2)c1` had a melting point of 117 to 119 °C.

In turn, `Cn1cc(C=O)c(-c2ccccc2)n1` displayed a melting point of 59 to 61 °C.

With `CS(=O)(=O)c1cccc(NN)c1`, the melting point lay within 93 to 95 °C.

`Clc1cc(NCC2CC2)ncn1`: the melting point lay within 98 to 100 °C.

In the case of `CC(C)(C)c1ncccc1O`, the melting point is 159 to 161 °C.

With `CCn1cc(C(F)(F)C(=O)O)cn1`, the melting point is 99 to 101 °C.

`Fc1ccccc1-c1nnc2ccc(Cl)nn12` came in with a melting point of 164 to 166 °C.

`Cn1cc(S(=O)(=O)NN)c(=O)n(C)c1=O`: the melting point lay within 134 to 136 °C.

With `O=C(O)C1(c2cccc(F)c2)CCCCC1`, the melting point was 135 to 137 °C.

`O=C(O)C(Oc1ccc(Cl)cc1)c1ccccc1` (stereo not drawn) showed a melting point of 161 to 163 °C.

Compound `CC1(c2cccc([N+](=O)[O-])c2)NC(=O)NC1=O` (stereo not drawn) showed a melting point of 178 to 180 °C.

As for `CCOC(=O)c1cc(N)cc(S(C)(=O)=O)c1`, the melting point was 190 to 192 °C.

As for `Cc1ccc(C#N)c(N2CCCC2)c1`, the melting point is 68 to 70 °C.

Consider `O=C(O)C=C1CCC1`, for which the melting point fell in the range of 89 to 91 °C.

In the case of `O=C(O)c1ccc2[nH]c(=O)[nH]c2c1`, the melting point fell in the range of 373 to 375 °C.

`CCCC(=O)Nc1ccc(CN)cc1` came in with a melting point of 85 to 87 °C.

`CC(O)c1ccc(-n2cncn2)cc1` (stereo not drawn) gave a melting point of 90 to 92 °C.

As to `Cc1nn(C)c(C(F)(F)F)c1C(=O)O`, the melting point lay in the range of 213 to 215 °C.

The compound `Cc1nc2cc(F)cc(C(=O)O)c2nc1C` yielded a melting point of 226 to 228 °C.

In the case of `O=C(O)c1cc(/C=C/c2ccc(Br)cc2)nc2ccc(Br)cc12`, the melting point was in the range of 309 to 311 °C.

The compound `COc1cc(N)ncc1Br` yielded a melting point of 136 to 138 °C.

Compound `CCCNC(=O)c1cccc(C(=O)O)c1` showed a melting point of 229 to 231 °C.

In turn, `CC(C)(C)OC(=O)Nc1cccc(CC(=O)O)c1` came in with a melting point of 97 to 99 °C.

Compound `CCOC(=O)c1nc(-c2ccccc2)oc1CBr` returned a melting point of 94 to 96 °C.

The compound `O=C(O)C1(c2cccc(C(F)(F)F)c2)CCC1` yielded a melting point of 92 to 94 °C.

The compound `CCOc1cn(-c2ccccc2)nc1C(=O)O` had a melting point of 142 to 144 °C.

Take `Nc1ccnn1Cc1ccc(Br)cc1`: the melting point lay in the range of 97 to 99 °C.

As for `O=S(=O)(Cl)c1cnn(Cc2ccccc2)c1`, the melting point fell in the range of 57 to 59 °C.

For `Cc1cc(C(=O)O)c2c(C)nn(C(C)(C)C)c2n1`, the melting point fell in the range of 189 to 191 °C.

As for `CN1CCN(c2cccc(Cl)c2C=O)CC1`, the melting point was 80 to 82 °C.

As to `O=C(O)CCNC(=O)c1ccc(F)cc1F`, the melting point is 118 to 120 °C.

`COc1cc(C#N)ccc1Oc1ccc(N)cc1` came in with a melting point of 123 to 125 °C.

Consider `CC1=NN(c2ccc(F)cc2)C(=O)C1`, for which the melting point lay within 148 to 150 °C.

For `CN(C)c1ccc(-c2nc3ccccc3s2)cc1`, the melting point lay in the range of 171 to 173 °C.

For `Cc1ccc(-c2nnc(CCC(=O)O)o2)cc1`, the melting point lay in the range of 169 to 171 °C.

In turn, `Clc1ccc(OCC2CO2)cc1` (stereo not drawn) returned a melting point of 31 to 33 °C.

`O=C(NCCc1cccs1)C1Cc2ccccc2CN1` (stereo not drawn) displayed a melting point of 86 to 88 °C.

`O=C(O)c1cc2cccc(Br)c2o1` showed a melting point of 256 to 258 °C.

The compound `COCCNC(=S)NN` came in with a melting point of 85 to 87 °C.

As to `COCCNc1nnnn1C`, the melting point was 59 to 61 °C.

Turning to `NNC(=O)Cc1ccccn1`, the melting point lay within 111 to 113 °C.

Compound `CSC(=CC(=O)c1ccccc1)SC` registered a melting point of 92 to 94 °C.

`O=C(O)c1cc(=O)n(-c2ccccc2)[nH]1` registered a melting point of 256 to 258 °C.

In the case of `Fc1cc(F)cc(-c2n[nH]c(S)n2)c1`, the melting point was in the range of 279 to 281 °C.

As for `Cc1ccc(S(=O)(=O)Cl)c(F)c1`, the melting point is 39 to 41 °C.

As for `COc1ccc(C2C(C(N)=O)CCC(=O)N2C)cc1` (stereo not drawn), the melting point is 220 to 222 °C.

The compound `O=c1nncc2[nH]cccc1-2` returned a melting point of 269 to 271 °C.

In turn, `O=C(O)c1ccc(COc2ccc3ccccc3c2)o1` had a melting point of 171 to 173 °C.

Consider `NS(=O)(=O)c1ccc(Br)cn1`, for which the melting point lay within 170 to 172 °C.

In turn, `N#CCc1ccccc1C(=O)O` displayed a melting point of 106 to 108 °C.

In turn, `O=C(O)C1CCN(S(=O)(=O)c2ccc3ccccc3c2)CC1` showed a melting point of 180 to 182 °C.

Take `COC(C)c1nc(C(=O)O)cs1` (stereo not drawn): the melting point was in the range of 73 to 75 °C.

Take `CCc1ccc(C(N)=S)cc1`: the melting point was in the range of 47 to 51 °C.

On to `COc1ccccc1CNc1nc(-c2ccc(C)cc2)cs1`, for which the melting point was in the range of 96 to 98 °C.

Turning to `COc1ccccc1C(C)N(C)C(=O)CCl` (stereo not drawn), the melting point was 66 to 68 °C.

As for `O=C(O)CNc1cccc(C(F)(F)F)c1`, the melting point lay within 123 to 125 °C.

The compound `CNc1snc(C)c1C(=O)O` gave a melting point of 151 to 153 °C.

With `Cc1noc(C)c1S(=O)(=O)N1CCC(C(=O)O)CC1`, the melting point fell in the range of 210 to 215 °C.

Compound `N#CCC(=O)CCc1ccccc1` came in with a melting point of 69 to 71 °C.
